Results on 41 molecules are retold here after patent publication US20260216157A1, “TETRAHYDROTHIOPHENE DERIVATIVE AND USE THEREOF IN MEDICINE” (Haisco Pharmaceutical Group Co., Ltd., priority 2023, published 2026).

This assay addresses T1, hNav1.8 (Homo sapiens, UniProt Q9Y5Y9).
T1 construct: expressed in transfected cells; host or cells: CHO
The assay can be described thus: Nav1.8 manual patch clamp test. The assay is classed as cell-based. Conditions: CHO cells stably expressing human Nav1.8; whole-cell patch clamp, half-inactivated state; read-out: Inhibitory activity (IC50) against hNav1.8. As for the experimental part:
Nav1.8 Manual Patch Clamp Test
CHO cell lines stably expressing human Nav1.8 were cultured in a Ham's F-12 medium containing 10% fetal bovine serum, 10 μg/mL Blasticidin, 200 μg/mL Hygromycin B and 100 μg/mL Zeocin. The cells were cultured at 37° C. with a carbon dioxide concentration of 5%. The old medium was removed, and the cells were rinsed once with PBS. Then, 1 mL of 0.25%-Trypsin-EDTA solution was added, and the cells were incubated at 37° C. for approximately 1.5 min. Once the cells detached from the bottom of the dish, complete medium pre-warmed to 37° C. was added. The cell suspension was gently triturated with a pipette to dissociate the clumped cells. The cell suspension was transferred to a sterile centrifuge tube and centrifuged at 1000 rpm for 5 min to collect the cells. The cells were seeded into 6 cm cell culture dishes at a density of 2.5×10^5 cells per cell culture dish (final volume: 5 mL) for expansion or maintenance culture. To maintain the electrophysiological activity of the cells, the cell density should not exceed 80%. Before patch clamp testing, the cells were dissociated with 0.25%-Trypsin-EDTA. 6.5×10^3 cells were plated onto coverslips and cultured in 24-well plates (final volume: […]) for 18 hours before detection.
The compound was dissolved in dimethyl sulfoxide (DMSO) and prepared into a 30 mM DMSO stock solution. The stock solution was diluted with the extracellular fluid (140 mM NaCl, 3.5 mM KCl, 1 mM MgCl2·6H2O, 2 mM CaCl2·2H2O, 10 mM D-Glucose, 10 mM HEPES and 1.25 mM NaH2PO4·2H2O; adjusted to pH 7.4 with NaOH) to the test concentration, and the final DMSO concentration of all test samples was 0.1%.
(3) Electrophysiological Test
First, the recording electrodes were pulled from capillary glass tubes by using a microelectrode puller. Then, the electrodes were filled with the intracellular fluid (50 mM CsCl, 10 mM NaCl, 10 mM HEPES, 60 mM CsF and 20 mM EGTA; adjusted to pH 7.2 with CsOH) and mounted onto the microelectrode holder. Under an inverted microscope, the microelectrode manipulator was used to immerse the electrodes into the extracellular fluid, and the pipette resistance (Rpip) was recorded. The electrodes were slowly brought into contact with the cell surface, and negative pressure suction was applied to form a […]. At this point, fast capacitance compensation was performed, and negative pressure was continuously applied to break the cell membrane, forming a whole-cell recording mode. Finally, slow capacitance compensation was performed, and experimental parameters such as series resistance (Rs) were recorded. No electric leakage compensation was applied. When the Nav1.8 current in whole-cell recording was stable, drug administration was initiated, with each drug concentration for approximately 5 min (or until the current was stable). The coverslips spread with the cells were placed in a recording chamber under the inverted microscope. The blank control extracellular fluid and the test compound working solution were perfused through the recording chamber via the gravity-driven perfusion method, thereby acting on the cells, and a peristaltic pump was used to facilitate liquid exchange. The current recorded from cells in compound-free extracellular fluid was used as the control group. All electrophysiological experiments were conducted at room temperature. The inhibition rate of compounds on Nav1.8 was determined by calculating the relative percentage of peak currents generated before and after the cells were treated with the compounds.
The voltage stimulation protocol for whole-cell patch clamp recording of Nav1.8 sodium currents was described as follows. When the whole-cell sealing was formed, the cells were clamped at a voltage of −120 mV. First, the voltage was stepped from −110 mV to −30 mV in 10 mV increments and maintained for 5 s, followed by a depolarizing pulse to 0 mV to obtain a half-inactivation voltage (Vhalf). […]
For orientation: The patch-clamp technique gives a direct electrical read-out from membranes.

T1 sequence (Q9Y5Y9 whole entry): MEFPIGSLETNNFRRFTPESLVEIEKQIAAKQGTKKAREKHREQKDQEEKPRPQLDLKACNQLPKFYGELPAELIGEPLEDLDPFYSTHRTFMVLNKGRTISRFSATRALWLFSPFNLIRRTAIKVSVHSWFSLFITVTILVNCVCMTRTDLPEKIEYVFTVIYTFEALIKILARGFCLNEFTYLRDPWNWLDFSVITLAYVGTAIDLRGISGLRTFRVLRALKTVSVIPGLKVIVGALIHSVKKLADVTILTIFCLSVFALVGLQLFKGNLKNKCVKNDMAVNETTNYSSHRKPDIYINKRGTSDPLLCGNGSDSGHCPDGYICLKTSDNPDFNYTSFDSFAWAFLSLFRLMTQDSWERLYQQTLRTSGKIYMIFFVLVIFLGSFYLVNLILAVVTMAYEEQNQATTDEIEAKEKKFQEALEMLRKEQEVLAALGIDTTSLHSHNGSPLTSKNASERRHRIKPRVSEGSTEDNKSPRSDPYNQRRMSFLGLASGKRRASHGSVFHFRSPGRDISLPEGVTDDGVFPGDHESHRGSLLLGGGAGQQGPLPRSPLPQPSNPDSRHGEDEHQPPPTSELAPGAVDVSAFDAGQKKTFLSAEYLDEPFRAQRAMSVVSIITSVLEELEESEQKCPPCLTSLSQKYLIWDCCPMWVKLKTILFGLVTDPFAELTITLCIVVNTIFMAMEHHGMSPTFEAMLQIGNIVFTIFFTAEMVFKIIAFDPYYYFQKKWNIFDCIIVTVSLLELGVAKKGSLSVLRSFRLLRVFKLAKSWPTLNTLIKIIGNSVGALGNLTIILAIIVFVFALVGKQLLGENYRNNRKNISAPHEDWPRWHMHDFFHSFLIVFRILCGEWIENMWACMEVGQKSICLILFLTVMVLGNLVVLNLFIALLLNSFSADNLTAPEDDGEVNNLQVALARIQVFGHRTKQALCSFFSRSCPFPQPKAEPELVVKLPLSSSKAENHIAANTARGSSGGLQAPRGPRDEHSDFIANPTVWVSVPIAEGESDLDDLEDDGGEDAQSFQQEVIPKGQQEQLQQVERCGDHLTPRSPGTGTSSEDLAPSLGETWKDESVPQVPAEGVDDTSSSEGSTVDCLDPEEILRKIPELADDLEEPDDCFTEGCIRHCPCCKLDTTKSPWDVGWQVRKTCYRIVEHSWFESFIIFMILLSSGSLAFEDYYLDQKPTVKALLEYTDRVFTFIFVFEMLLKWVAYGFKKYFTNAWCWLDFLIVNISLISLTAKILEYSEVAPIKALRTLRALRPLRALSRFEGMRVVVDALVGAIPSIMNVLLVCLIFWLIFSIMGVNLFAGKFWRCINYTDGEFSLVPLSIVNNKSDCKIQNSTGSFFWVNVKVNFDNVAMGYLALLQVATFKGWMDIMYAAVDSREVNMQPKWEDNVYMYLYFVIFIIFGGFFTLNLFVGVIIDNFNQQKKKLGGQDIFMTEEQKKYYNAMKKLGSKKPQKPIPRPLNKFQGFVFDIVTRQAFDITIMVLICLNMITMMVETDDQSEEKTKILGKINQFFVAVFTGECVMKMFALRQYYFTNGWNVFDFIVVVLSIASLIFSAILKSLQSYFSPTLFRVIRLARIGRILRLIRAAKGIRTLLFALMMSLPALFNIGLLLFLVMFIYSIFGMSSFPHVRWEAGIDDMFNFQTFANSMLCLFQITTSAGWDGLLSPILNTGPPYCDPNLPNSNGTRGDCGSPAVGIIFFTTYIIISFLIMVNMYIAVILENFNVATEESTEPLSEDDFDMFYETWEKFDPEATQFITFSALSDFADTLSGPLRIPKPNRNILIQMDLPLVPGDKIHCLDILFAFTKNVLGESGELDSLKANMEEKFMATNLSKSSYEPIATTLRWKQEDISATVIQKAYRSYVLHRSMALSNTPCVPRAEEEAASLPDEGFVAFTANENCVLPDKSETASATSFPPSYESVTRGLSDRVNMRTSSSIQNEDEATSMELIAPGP

Consider `COc1c(C2C(C(=O)Nc3ccnc(C(N)=O)c3)SC(C)(C(F)(F)F)C2C)ccc(F)c1F` (centres unmarked), for which the IC50 is < 0.1 nM.

Consider `COc1c([C@H]2[C@H](C(=O)Nc3ccc(F)c(S(C)(=N)=O)c3)S[C@@](C)(C(F)(F)F)[C@H]2C)ccc(F)c1F` (some centres unmarked), for which the IC50 is < 0.1 nM. In the case of `COc1c(C2C(C(=O)Nc3ccnc(OCC(O)CO)c3)SC(C)(C(F)(F)F)C2C)ccc(F)c1F` (mixture of isomers) [Mixture of compounds 33-1a and 33-1b], the IC50 is < 1 nM.

Consider `COc1c([C@H]2[C@H](C(=O)Nc3ccc[n+]([O-])c3)S[C@@](C)(C(F)(F)F)[C@H]2C)ccc(F)c1F` (racemic) [Mixture of compounds 20-1a and 20-1b], for which the IC50 is < 0.1 nM. The result for `COc1c(C2C(C(=O)Nc3ccnc(C(N)=O)c3)SC(C)(C(F)(F)F)C2C)ccc(F)c1F` (single isomer, unassigned) [Compound 1-2P1] reads < 0.1 nM; that for `COc1c(C2C(C(=O)Nc3ccnc(C(N)=O)c3)SC(C)(C(F)(F)F)C2C)ccc(F)c1F` (single isomer, unassigned) [Compound 1-2P2], < 10 nM. As for `COc1c(C2CC(C)(C(F)(F)F)SC2C(=O)Nc2cccc(C(N)=O)c2)ccc(F)c1F` (single isomer, unassigned) [Compound 32-1P1], the half-maximal inhibitory concentration (IC50) was < 1 nM.

As to `COc1c(C2CC(C)(C(F)(F)F)SC2C(=O)Nc2cccc(C(N)=O)c2)ccc(F)c1F` (single isomer, unassigned) [Compound 32-1P2], the IC50 was < 1 nM. For the molecule `COc1c([C@@H]2C[C@](C)(C(F)(F)F)S[C@H]2C(=O)Nc2ccc(F)c(C(N)=O)c2)ccc(F)c1F` (single isomer, unassigned) [Compound 70-a], the half-maximal inhibitory concentration (IC50) was < 0.1 nM. Next, `COc1c([C@H]2[C@H](C(=O)Nc3ccnc(C(N)=O)c3)S[C@@](C)(C(F)(F)F)[C@H]2C)ccc(F)c1F` [Compound 1-2a]: < 0.1 nM; `COc1c([C@H]2[C@H](C(=O)Nc3ccnc(S(N)(=O)=O)c3)S[C@@](C)(C(F)(F)F)[C@H]2C)ccc(F)c1F` [Compound 5-3a]: < 0.1 nM. The result for `COc1c([C@H]2[C@H](C(=O)Nc3cccc(S(N)(=O)=O)c3)S[C@@](C)(C(F)(F)F)[C@H]2C)ccc(F)c1F` [Compound 7-1a] reads < 0.1 nM. `COc1c([C@H]2[C@H](C(=O)Nc3ccc(F)c(S(N)(=O)=O)c3)S[C@@](C)(C(F)(F)F)[C@H]2C)ccc(F)c1F` [Compound 8-1a]: the IC50 is < 0.1 nM.

`COc1c([C@H]2[C@H](C(=O)Nc3ccc(CO)nc3)S[C@@](C)(C(F)(F)F)[C@H]2C)ccc(F)c1F` [Compound 18-2a]: the IC50 is < 1 nM. Turning to `COc1c([C@H]2[C@H](C(=O)Nc3cnc(CO)nc3)S[C@@](C)(C(F)(F)F)[C@H]2C)ccc(F)c1F` [Compound 19-2a], the IC50 is < 1 nM. As to `COc1c([C@H]2[C@H](C(=O)Nc3ccc[n+]([O-])c3)S[C@@](C)(C(F)(F)F)[C@H]2C)ccc(F)c1F` [Compound 20-1a], the IC50 was < 1 nM.

In the case of `COc1c([C@H]2[C@H](C(=O)Nc3cccc(S(C)(=O)=O)c3)S[C@@](C)(C(F)(F)F)[C@H]2C)ccc(F)c1F` [Compound 22-1a], the IC50 was < 0.1 nM. In the case of `COc1c([C@H]2[C@H](C(=O)Nc3ccnc(S(C)(=O)=O)c3)S[C@@](C)(C(F)(F)F)[C@H]2C)ccc(F)c1F` [Compound 25-1a], the IC50 was < 0.1 nM. Next, `COc1c([C@H]2[C@H](C(=O)Nc3ccc(F)c(S(C)(=O)=O)c3)S[C@@](C)(C(F)(F)F)[C@H]2C)ccc(F)c1F` [Compound 26-1a]: < 0.1 nM; `COc1c([C@H]2[C@H](C(=O)Nc3cc[nH]c(=O)c3)S[C@@](C)(C(F)(F)F)[C@H]2C)ccc(F)c1F` [Compound 36-2a]: < 0.1 nM. The result for `COc1c([C@H]2[C@H](C(=O)Nc3ccc(F)c(CO)c3)S[C@@](C)(C(F)(F)F)[C@H]2C)ccc(F)c1F` [Compound 48-1a] reads < 1 nM. In the case of `COc1c([C@H]2[C@H](C(=O)Nc3ccnc(CO)c3)S[C@@](C)(C(F)(F)F)[C@H]2C)ccc(F)c1F` [Compound 50], the IC50 is < 1 nM.

For `COc1c([C@H]2[C@H](C(=O)Nc3ccc(F)c(C(=O)O)c3)S[C@@](C)(C(F)(F)F)[C@H]2C)ccc(F)c1F` [Compound 55], the IC50 is < 1 nM. Next, `COc1c([C@H]2[C@H](C(=O)Nc3cccc(P(C)(C)=O)c3)S[C@@](C)(C(F)(F)F)[C@H]2C)ccc(F)c1F` [Compound 57]: < 1 nM; `C[C@H]1[C@@H](c2ccc(F)c3c2CCC3)[C@H](C(=O)Nc2ccc(F)c(S(N)(=O)=O)c2)S[C@@]1(C)C(F)(F)F` [Compound 59-b]: < 0.1 nM.

For `C[C@H]1[C@@H](c2ccc(F)c3c2CCC3)[C@H](C(=O)Nc2ccc(F)c(C(N)=O)c2)S[C@@]1(C)C(F)(F)F` [Compound 61-b], the IC50 is < 0.1 nM. Next, `C[C@H]1[C@@H](c2ccc(F)c3c2CCC3)[C@H](C(=O)Nc2ccc(F)c(S(C)(=N)=O)c2)S[C@@]1(C)C(F)(F)F` (some centres unmarked) [Compound 63-b]: < 0.1 nM; `C[C@H]1[C@@H](c2ccc(F)c3c2CCC3)[C@H](C(=O)Nc2ccc(F)c(S(C)(=O)=O)c2)S[C@@]1(C)C(F)(F)F` [Compound 65-b]: < 0.1 nM; `C[C@H]1[C@@H](c2ccc(F)c3c2CCC3)[C@H](C(=O)Nc2ccnc(P(C)(C)=O)c2)S[C@@]1(C)C(F)(F)F` [Compound 68-b]: < 1 nM. Turning to `COc1c([C@@H]2C[C@](C)(C(F)(F)F)S[C@H]2C(=O)Nc2ccc(F)c(S(N)(=O)=O)c2)ccc(F)c1F` [Compound 72-a], the 50% inhibitory concentration (IC50) is < 0.1 nM. Next, `COc1c([C@@H]2C[C@](C)(C(F)(F)F)S[C@H]2C(=O)Nc2ccnc(P(C)(C)=O)c2)ccc(F)c1F` [Compound 74-a]: < 1 nM. Regarding `COc1c(C2C(C(=O)Nc3ccnc(S(N)(=O)=O)c3)SC(C)(C(F)(F)F)C2C)ccc(F)c1F` (centres unmarked) [Mixture of compounds 5-3a and 5-3b], the concentration for half-maximal inhibition (IC50) was < 1 nM.

For the molecule `COc1c(C2C(C(=O)Nc3ccc(CO)nc3)SC(C)(C(F)(F)F)C2C)ccc(F)c1F` (centres unmarked) [Mixture of compounds 18-2a and 18-2b], the IC50 is < 1 nM. For `COc1c(C2C(C(=O)Nc3cnc(CO)nc3)SC(C)(C(F)(F)F)C2C)ccc(F)c1F` (centres unmarked) [Mixture of compounds 19-2a and 19-2b], the IC50 was < 1 nM. Regarding `COc1c(C2C(C(=O)Nc3ccnc(S(C)(=O)=O)c3)SC(C)(C(F)(F)F)C2C)ccc(F)c1F` (centres unmarked) [Mixture of compounds 25-1a and 25-1b], the IC50 was < 0.1 nM. Take `COc1c(C2C(C(=O)Nc3ccc(F)c(S(C)(=O)=O)c3)SC(C)(C(F)(F)F)C2C)ccc(F)c1F` (centres unmarked) [Mixture of compounds 26-1a and 26-1b]: the IC50 is < 1 nM. As for `COc1c([C@H]2[C@H](C(=O)Nc3cccc(C(N)=O)c3)S[C@@](C)(C(F)(F)F)[C@H]2C)ccc(F)c1F` [Mixture of compounds 28-2a and 28-2b], the IC50 was < 0.1 nM.

As to `COc1cc(F)ccc1C1C(C(=O)Nc2ccnc(C(N)=O)c2)SC(C)(C(F)(F)F)C1C` (centres unmarked) [Mixture of compounds 34-1a and 34-1b], the IC50 is < 1 nM. Turning to `[2H]C([2H])([2H])Oc1c([C@H]2[C@H](C(=O)Nc3ccnc(C(N)=O)c3)S[C@@](C)(C(F)(F)F)[C@H]2C)ccc(F)c1F` [Mixture of compounds 35-8a and 35-8b], the IC50 is < 0.1 nM. The result for `COc1c(C2C(C(=O)Nc3cc[nH]c(=O)c3)SC(C)(C(F)(F)F)C2C)ccc(F)c1F` (centres unmarked) [Mixture of compounds 36-2a and 36-2b] reads < 0.1 nM; that for `CC1C(c2ccc(F)c3c2CCC3)C(C(=O)Nc2cccc(C(N)=O)c2)SC1(C)C(F)(F)F` (centres unmarked) [Mixture of compounds 37-1a and 37-1b], < 1 nM.

As a reminder, the IC50 is the concentration needed to halve the response being measured.
